Source: patent publication US20240279201A1, “DUAL WNT SIGNALING PATHWAY INHIBITORS AND AMPK ACTIVATORS FOR TREATMENTS OF DISEASE” (priority 2021, published 2024)
“Also recorded” adds a separate entry of the source.

Experiments:
[1] = Pharmacokinetic (PK) studies, oral dose; conditions: C57/BL6, mouse, blood, 5 mg/kg
Method: The ADMET and PK properties of YA6060 was determined.
PK/Tox. The four selected compounds from in vitro evaluation above are subjected to PK and toxicity assessment in C57/BL6 mice. […] Compound concentrations is determined by LC/MS/MS. PK analysis is carried out on Phoenix Winnolin using non-compartmental analysis and compartment models. Compound accumulation in major tissues, including liver, kidney, heart, brain and intestine, are quantified. […] For study ii, a half number of mice per group are sacrificed immediately after the 3-week course and the remaining after a 2-week washout period to assess delayed toxicity. In toxicity studies, blood is collected upon euthanasia for liver and renal chemistries and complete blood counts, and major organs harvested and examined macro- and microscopically by veterinarian pathologists. It is expected that an understanding of PK properties, such as bioavailability, AUC, clearance, and toxic effects, such as general tolerance and specific toxicity in the liver, kidney, other major organs, and particularly Wnt-dependent tissues, such as intestine, stomach, and skin is established for these selected compounds.

TGF-β-treated LX-2 cells = test: Anti-fibrotic efficacy in TGF-β-treated LX-2 cells; format: cell-based; conditions: 24 hours
Method: FIG. 9A-FIG. 9C illustrate the anti-fibrotic efficacy of YA6060 in LX-2 cells. LX-2 cells were exposure to TGF-beta with and without different concentrations of YA6060 for 24 hours. FIG. 9A is a gel illustrating Western blot results. FIG. 9B and FIG. 9C are graphs of experimental data illustrating RT-PCR results. FIG. 14A-FIG. 14C illustrate the anti-fibrotic efficacy of YA6060 in LX-2 cells. The effect of YA6060 treatment on the expression of fibrotic markers in LX-2 cells was examined. LX-2 cells were treated with TGF-beta to model fibrosis. FIG. 14A is an image of a Western blot illustrating protein expression of collagen 1, vimentin, and alpha-SMA. […] FIG. 14C is a graph of experimental data illustrating mRNA expression of genes associated with inflammation by RT-PCR. The cells were treated with the indicated concentrations of YA6060 for 24 hours. *P<0.05, **P<0.01. […] The effect of YA6060 treatment on the expression of fibrotic markers in LX-2 cells was examined. LX-2 cells were treated with TGF-beta to model fibrosis. Protein expression of collagen 1, vimentin, and alpha-SMA by Western blotting (FIG. 14A). mRNA expression of collagen 1, vimentin, and alpha-SMA by RT-PCR was examined (FIG. 14B). mRNA expression of genes associated with inflammation by RT-PCR was examined (FIG. 14C). The cells were treated with the indicated concentrations of YA6060 for 24 hours. *P<0.05, **P<0.01. […]

HT29 cells = test: Viability of HT29 cells; format: cell-based; conditions: Homo sapiens, HT-29, read-out: IC50, cell viability
[2] = tested on: DMNA-induced liver fibrosis; test: Dimethylnitrosamine (DMNA) liver fibrosis mouse model; format: in vivo, C57BL/6 mice
Method: FIG. 4 illustrates that YA6060 protects liver from damage caused by dimethylnitrosamine (DMNA). Vehicle (top panels) or 10 mg/kg DMNA (bottom panels) was given on a Monday-Tuesday-Wednesday schedule each week; YA6060 or vehicle was given daily. After sacrifice of mice (6/group) at 4 weeks, paraffin sections were stained with Sirius Red to visualize collagen. […] Bars, 100 μm.
FIG. 10 is a graph of experimental data illustrating anti-fibrotic efficacy of YA6060 in mice. C57BL/6 mice received dimethylnitrosamine (DMNA, 10 mg/kg/d i.p. for 3d and then rest for 4d) or saline, with or without YA6060 (0.5 mg/kg/d) for 4 weeks. The fibrosis and inflammation biomarkers were examined by RT-PCR with the liver tissues.
FIG. 11A-FIG. 11C illustrate the effect of YA6060 on liver function in mice. C57BL/6 mice received dimethylnitrosamine (DMNA, 10 mg/kg/d i.p. for 3d and then rest for 4d) or saline, with or without YA6060 (0.5 mg/kg/d) for 4 weeks. The serum biochemistry was determined for alanine aminotransferase (ALT) and aspartate aminotransferase (AST) (FIG. 11A), albumin (FIG. 11B), and total bilirubin (FIG. 11C).
The effect of YA6060 treatment on the expression of fibrotic markers in LX-2 cells was examined. LX-2 cells were treated with TGF-beta to model fibrosis. Protein expression of collagen 1, vimentin, and alpha-SMA by Western blotting (FIG. 14A). mRNA expression of collagen 1, vimentin, and alpha-SMA by RT-PCR was examined (FIG. 14B). mRNA expression of genes associated with inflammation by RT-PCR was examined (FIG. 14C). The cells were treated with the indicated concentrations of YA6060 for 24 hours. *P<0.05, **P<0.01. The effect of YA6060 treatment on liver fibrosis in mice was also examined (FIG. 15). […]
Fibrosis in the liver tissues of the mice that received YA6060 treatment was quantified (FIG. 16). […] The collagen of liver tissues was stained by Sirius red (SR) and quantitated by Image J software. ***P<0.001. […]

Question: With `Cc1ccccc1-n1nnc(C(=O)Nc2ccc3cc(CN4CCNCC4)ccc3n2)c1C` [YA6060] as the molecule, how does the half-life ([1]; oral) read?
Answer: The half-life was 2.67 h.

Question: What about the Cmax ([1]; po) of the same molecule?
Answer: The Cmax was 24000 ng/mL.

Question: And the Tmax ([1]; po)?
Answer: Its Tmax is 1.6 h.

Question: What about the bioavailability ([1]; po) of the same molecule?
Answer: Its bioavailability is 75%.

Question: What about the half-life ([1]; po) of the same molecule?
Answer: The half-life was 2.67 h.

Question: And the “expression of fibrosis and inflammation markers” value (TGF-β-treated LX-2 cells)?
Answer: The value was “significantly reduced the expression of fibrosis markers”.

Question: And the IC50 (HT29 cells)?
Answer: The IC50 was 8.6 µM.

Question: And the “liver fibrosis (Sirius Red)” value ([2]; 0.5 or 5 mg/kg/day, 4 weeks)?
Answer: Its value is “reduced dimethylnitrosamine (DMNA)-induced fibrosis; also recorded: strong protective effects”.

Question: What about the “inflammation infiltration (H&E hepatic histology)” value ([2]; DMNA 4 weeks) of the same molecule?
Answer: The value was “ameliorated”.

Question: What about the “liver function (serum ALT, AST, albumin, total bilirubin)” value ([2]; YA6060 co-treatment with DMNA) of the same molecule?
Answer: Its value is “normal liver function”.
